The subject of the assay is MCF7. Put plainly: Potency index, ratio of cisplatin IC50 to test compound IC50 for cytotoxicity against human MCF7 cells after 48 hrs by MTT assay. The assay is classed as functional. For orientation: Tetrazolium assays rely on reduction of a dye to a coloured formazan, in cell work by metabolically active cells.

`COc1ccc(/C=C2\N=C(c3ccco3)N(n3c(C)nc4c(Br)cc(Br)cc4c3=O)C2=O)cc1`: the “Ratio IC50” value was found to be 3.

The values are drawn from ChEMBL document CHEMBL4261515, “An insight into the therapeutic potential of quinazoline derivatives as anticancer agents” (2017).
